# In patent US20090318491A1 (priority 2006, published 2009):
# Where two headings read alike, the source gives them in different places.
# Tests used:
# C57BL/6J male mice [1] = format: in vivo
# Text: Subjects were 12-week old male C57BL/6J mice (The Jackson Laboratory, Bar Harbor Me.). Subjects were housed 5 per cage under standardized conditions (12:12 light cycle with lights on at 7:00 am) and were allowed at least 7 days of rest before testing. Food and water were available ad libitum.
# Placebo cage-mate controls received an injection of saline.
# The tail suspension test took place between 2:00 pm and 5:00 pm. […] Immediately after injection, each animal was placed in a clean cage and transferred to the testing room.
# Approximately 1 cm from the end, each mouse's tail was taped (Scotch 35 Vinyl Electrical Tape) to a paperclip. Mice were suspended by the tail approximately 80 cm above the floor and the duration of immobility, defined as the absence of all movement except for those required for respiration, was recorded by an observer for 6 minutes. The animals were then returned to the holding room.
# hα4β2 = target: T1, hα4β2 (Homo sapiens, UniProt P17787+P43681); details: HEK293 cells; cited from earlier work
# T1 construct: expressed in transfected cells; host or cells: HEK293 cells
# α4β2* nAChR = target: T2, α4β2* nAChR (Rattus norvegicus, UniProt P09483+P12390); experiment: biochemical; format: binding
# T2 construct: Frozen rat brains were thawed slowly before the preparation of the P2 rat brain membrane fraction; from tissue; host or cells: rat brain (without cerebellum and medulla), P2 membrane fraction
# Protocol: Preparation of Rat Brains
# Frozen rat brains were thawed slowly before the preparation of the P2 rat brain membrane fraction (30-60 min on ice, afterwards at room temperature). […] After the determination of the wet weight (1.32 g on average), the brains were pressed into a pulp using a syringe and homogenised in saccharose buffer with a glass teflon homogenizator (Potter, 10 seconds). The tissue was then centrifuged (1,000×g, 20 min, 4° C.), the supernatant (S1) aspirated with a Pasteur pipette and stored on ice. The P1 pellet was re-suspended in saccharose buffer and the centrifugation was repeated. The supernatant S1′ was collected and added to the supernatant S1. The combined supernatants were centrifuged (25,000×g, 20 min, 4° C.), the supernatant S2 was removed and the pellet P2 collected and diluted with HSS-buffer. The buffer volume added was calculated on the basis of the wet weight in a ratio 1:2.
# The final pellet was stored in aliquots at −80° C. On the day of the experiment, the P2 membrane fraction was thawed, diluted with HSS-buffer (30-fold volume), homogenised and centrifuged (35,000×g, 10 min, 4° C.). The collected pellet was suspended in HSS-buffer and used in the radioligand binding experiments.
# Competition Assay Using (±)-[^3H]Epibatidine ([^3H]Epi) and Rat Brain P2-Fraction (α4β2*nAChR)
# (§1) A dilution row of 6-9 concentrations of the test compound was prepared. Each assay sample, with a total volume of 500 μL contained 100 μL of the membrane protein (60 μg), 100 μL of (±)-[^3H]epibatidine (0.5 nM), 100 μL of HSS-buffer and 200 μL of the test compound Non-specific binding was determined in the presence of 300 μM (−)-nicotine tartrate salt. The samples were homogenised and incubated for 90 min at 22° C. The incubation was terminated by vacuum filtration through glass fibre filters pre-soaked in 1% poly(ethyleneimine). The filter were rinsed three times with TRIS-buffer, punched out and transferred into 4 mL scintillation vials. The scintillation vials were filled with scintillation cocktail (2 mL) and the radioactivity was measured using a liquid scintillation counter.
# Assays were carried out in duplicate, triplicates or quadruplicates.
# (§2) Biological evaluation of the compounds on various nicotinic actylcholine receptors (nAChRs) was conducted with cells described below. […] Functional agonist activity of the cytisines in cells using a fluorescence assay sensitive to changes in cytosolic calcium.
# α3β4* nAChR = target: T3, α3β4* nAChR (Bos taurus, UniProt Q07263+Q8SPU6); experiment: biochemical; format: binding, calf
# T3 construct: 100 μL of the calf adrenal membrane protein fraction (60-70 μg); from tissue; host or cells: calf adrenals, membrane fraction
# Protocol: Preparation of Calf Adrenals
# Frozen calf adrenals (−80° C.) were placed on ice for 30-60 min and allowed to thaw slowly before they were cut into small pieces. After determination of the wet weight (4-6 g), the tissue was homogenised in HSS-buffer (Ultraturrax at 750 rpm). The homogenate was centrifuged (30,000×g, 10 min, 4° C.), the pellets collected and washed. This procedure was repeated five times. The buffer volume used to re-suspend the pellets was calculated on the basis of the wet weight in a ratio 1:6.5.
# The prepared tissues were stored in aliquots at −80° C. One hour before the experiments the tissues were slowly thawed, homogenised in HSS-buffer and centrifuged (25,000×g, 20 min, 4° C.). The pellets were re-suspended in fresh HSS-buffer and used for radioligand binding assays.
# Competition Assay Using (±)-[^3H]Epibatidine ([^3H]Epi) and Calf Adrenals Membrane Fraction (α3β4*nAChR)
# Each assay sample, with a total volume of 500 μL contained 200 μL of the test compound, 100 μL of (±)-[^3H]epibatidine, 100 μL of the calf adrenal membrane protein fraction (60-70 μg) and 100 μM of HSS-buffer. Non-specific binding was determined in the presence of 300 μM (−)-nicotine tartrate salt. The samples were homogenised and incubated for 90 min at 22° C. The incubation was terminated by vacuum filtration through glass fibre filters presoaked in 1% poly(ethyleneimine). The filters were rinsed three times with TRIS-buffer, punched out and transferred into 4 mL scintillation vials. The scintillation vials were filled with scintillation cocktail (2 mL) and the radioactivity was measured using a liquid scintillation counter.
# Assays were carried out in duplicates, triplicates or quadruplicates
# (α1)2β1γδ nAChR = target: T4, (α1)2β1γδ nAChR (Tetronarce californica, UniProt P02710+P02714+P02718); experiment: biochemical; format: binding, Torpedo californica
# T4 construct: 100 μL of the Torpedo californica electroplax fraction (60-70 μg); from tissue; host or cells: Torpedo californica electric organ (electroplax) membranes
# Protocol: Preparation of Torpedo californica Electroplax
# Frozen samples of Torpedo californica electric organ (−80° C.) were placed on ice for 30-60 min and allowed to thaw slowly before the membrane preparation. The tissue was homogenised in an ice-cold HSS-buffer (Ultraturrax at 750 rpm) and centrifuged (30,000×g, 10 min, 4° C.). The pellets were collected, washed four times with HSS-buffer through re-homogenization and centrifugation at the same settings. The remaining pellets were collected, re-suspended in HSS and stored in aliquots at −80° C.
# One hour before the experiments the tissues were slowly thawed, homogenised in HSS-buffer and centrifuged (25,000×g, 20 min, 4° C.). The pellets were re-suspended in fresh HSS-buffer and used for radioligand binding assays.
# Competition Assay Using (±)-[^3H]Epibatidine ([^3H]Epi) and Torpedo californica Electroplax ((α1)2β1γδ nAChR)
# as §1, with “μL contained 200 μL” for “μL contained 100 μL of the membrane protein (60 μg), 100 μL of (±)-[^3H]epibatidine (0.5 nM), 100 μL of HSS-buffer and 200 μL”, “the test compound, 100 μL of (±)-[^3H]epibatidine and 100 μL of the Torpedo californica electroplax fraction (60-70 μg). Non-specific binding” for “the test compound Non-specific binding”, “poly(ethyleneimine). The filters were rinsed” for “poly(ethyleneimine). The filter were rinsed”
# Assays were carried out in duplicates, triplicate or quadruplicates.
# as §2
# C57BL/6J male mice [2] = details: acute i.p. injection of cytisine, FIG. 1
# Protocol: C57BL/6J male mice, 34 months of age were used in these experiments. […] At 15 minutes, the mice were subject to a forced swim test (FST) and a recorded of immobility (time and patters) was provided. Control behavior was provided by testing locomotor activity at 20 minutes in an open field.
# C57BL/6J male mice [3] = details: 21 days i.p. treatment, 24 hour food deprivation, FIG. 1
# Protocol: A novelty-suppressed feeding test (NSFT) was conducted consisting of a 24 hour food deprivation, and a recording of the time to initiate a first feeding episode in an open-field, with controls for appetite and motivation (measure of weight loss and food intake).
# c-fos = details: brain regions, FIG. 2
# C57BL/6J male mice [4] = details: cytisine + 5HT1A/7 agonist 8OHDPAT
# T1 sequence (P43681 29-627 limits assumed): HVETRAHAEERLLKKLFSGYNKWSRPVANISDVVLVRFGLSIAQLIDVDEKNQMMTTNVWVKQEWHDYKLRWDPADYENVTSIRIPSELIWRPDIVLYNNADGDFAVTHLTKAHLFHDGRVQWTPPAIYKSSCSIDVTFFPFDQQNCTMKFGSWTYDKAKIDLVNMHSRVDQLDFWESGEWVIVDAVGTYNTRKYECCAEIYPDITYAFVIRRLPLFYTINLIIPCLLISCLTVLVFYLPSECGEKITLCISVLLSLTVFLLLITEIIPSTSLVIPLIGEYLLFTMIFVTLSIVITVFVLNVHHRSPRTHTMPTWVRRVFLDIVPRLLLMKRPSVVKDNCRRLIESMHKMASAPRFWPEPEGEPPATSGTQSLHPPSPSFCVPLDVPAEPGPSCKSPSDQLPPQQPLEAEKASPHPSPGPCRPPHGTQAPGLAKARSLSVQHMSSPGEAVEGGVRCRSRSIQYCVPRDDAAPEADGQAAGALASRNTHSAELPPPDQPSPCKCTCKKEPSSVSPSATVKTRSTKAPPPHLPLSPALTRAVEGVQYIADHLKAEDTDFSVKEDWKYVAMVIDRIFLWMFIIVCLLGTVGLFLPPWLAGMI
# T1 sequence (P17787 26-502): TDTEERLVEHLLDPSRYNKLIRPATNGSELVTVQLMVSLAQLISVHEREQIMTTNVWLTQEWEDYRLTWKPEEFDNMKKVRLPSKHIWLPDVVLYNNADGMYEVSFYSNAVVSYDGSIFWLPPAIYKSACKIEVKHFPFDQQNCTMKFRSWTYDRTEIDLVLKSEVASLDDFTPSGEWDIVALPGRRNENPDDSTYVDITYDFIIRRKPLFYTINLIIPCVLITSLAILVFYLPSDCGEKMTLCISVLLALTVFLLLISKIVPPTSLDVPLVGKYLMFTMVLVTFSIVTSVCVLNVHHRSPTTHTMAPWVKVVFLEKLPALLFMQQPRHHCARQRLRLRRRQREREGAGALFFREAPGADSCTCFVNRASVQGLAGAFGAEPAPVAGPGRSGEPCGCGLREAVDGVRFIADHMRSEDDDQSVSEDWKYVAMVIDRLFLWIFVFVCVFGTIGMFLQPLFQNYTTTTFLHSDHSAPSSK
# T3 sequence (Q07263 22-495): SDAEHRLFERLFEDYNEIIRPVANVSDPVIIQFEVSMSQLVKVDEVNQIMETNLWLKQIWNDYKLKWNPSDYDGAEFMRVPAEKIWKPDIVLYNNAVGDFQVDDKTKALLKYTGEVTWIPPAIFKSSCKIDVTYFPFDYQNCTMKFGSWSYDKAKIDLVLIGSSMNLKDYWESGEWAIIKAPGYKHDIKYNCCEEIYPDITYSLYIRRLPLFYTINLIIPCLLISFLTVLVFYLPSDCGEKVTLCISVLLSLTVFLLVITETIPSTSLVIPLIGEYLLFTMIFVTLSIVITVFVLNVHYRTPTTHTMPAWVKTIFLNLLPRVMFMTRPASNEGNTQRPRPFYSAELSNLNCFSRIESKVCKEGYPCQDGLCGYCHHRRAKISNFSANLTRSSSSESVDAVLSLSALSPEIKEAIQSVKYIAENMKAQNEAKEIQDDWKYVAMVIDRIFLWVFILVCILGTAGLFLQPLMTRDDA
# T3 sequence (Q8SPU6 20-496): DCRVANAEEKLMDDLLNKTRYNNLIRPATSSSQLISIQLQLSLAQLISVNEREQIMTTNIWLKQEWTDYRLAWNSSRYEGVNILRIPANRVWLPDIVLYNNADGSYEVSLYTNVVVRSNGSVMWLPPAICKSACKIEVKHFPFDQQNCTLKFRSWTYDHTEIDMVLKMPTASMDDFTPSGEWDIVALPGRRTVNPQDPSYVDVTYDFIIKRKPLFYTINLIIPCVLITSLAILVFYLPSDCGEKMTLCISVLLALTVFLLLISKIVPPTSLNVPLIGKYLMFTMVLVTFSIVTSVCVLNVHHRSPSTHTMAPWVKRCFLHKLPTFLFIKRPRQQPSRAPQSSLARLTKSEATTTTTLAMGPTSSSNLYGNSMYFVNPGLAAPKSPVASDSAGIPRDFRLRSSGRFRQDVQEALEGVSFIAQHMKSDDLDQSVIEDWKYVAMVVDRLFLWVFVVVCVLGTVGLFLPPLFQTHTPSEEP
# T2 sequence (P12390 25-500): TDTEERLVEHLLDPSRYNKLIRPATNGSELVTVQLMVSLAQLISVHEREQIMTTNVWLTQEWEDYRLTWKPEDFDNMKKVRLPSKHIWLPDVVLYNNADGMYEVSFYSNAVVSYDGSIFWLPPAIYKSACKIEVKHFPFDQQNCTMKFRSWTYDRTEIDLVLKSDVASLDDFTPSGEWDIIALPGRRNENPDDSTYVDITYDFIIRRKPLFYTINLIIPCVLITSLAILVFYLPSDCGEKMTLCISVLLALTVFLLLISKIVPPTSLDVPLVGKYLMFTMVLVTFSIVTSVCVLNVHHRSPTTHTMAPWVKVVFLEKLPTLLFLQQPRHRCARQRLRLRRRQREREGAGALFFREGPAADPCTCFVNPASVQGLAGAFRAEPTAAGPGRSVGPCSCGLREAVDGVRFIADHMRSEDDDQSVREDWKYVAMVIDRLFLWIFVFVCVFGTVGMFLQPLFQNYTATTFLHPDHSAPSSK
# T2 sequence (P09483 31-630): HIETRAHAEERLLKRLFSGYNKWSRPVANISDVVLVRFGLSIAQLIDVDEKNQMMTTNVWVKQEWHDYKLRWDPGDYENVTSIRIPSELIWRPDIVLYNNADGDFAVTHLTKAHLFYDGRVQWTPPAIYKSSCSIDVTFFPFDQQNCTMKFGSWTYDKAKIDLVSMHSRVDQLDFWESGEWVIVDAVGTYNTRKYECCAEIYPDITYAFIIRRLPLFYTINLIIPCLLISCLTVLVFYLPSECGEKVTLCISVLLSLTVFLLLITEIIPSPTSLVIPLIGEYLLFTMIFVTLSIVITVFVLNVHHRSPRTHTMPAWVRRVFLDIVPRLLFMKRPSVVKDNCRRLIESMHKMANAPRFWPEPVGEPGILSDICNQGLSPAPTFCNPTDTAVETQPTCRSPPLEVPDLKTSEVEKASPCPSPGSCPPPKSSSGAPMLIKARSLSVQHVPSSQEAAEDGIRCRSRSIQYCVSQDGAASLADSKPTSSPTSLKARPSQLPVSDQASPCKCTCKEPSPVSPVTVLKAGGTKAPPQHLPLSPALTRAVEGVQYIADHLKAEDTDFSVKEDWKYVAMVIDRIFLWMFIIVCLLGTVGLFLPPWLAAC
# T4 sequence (P02710 25-461): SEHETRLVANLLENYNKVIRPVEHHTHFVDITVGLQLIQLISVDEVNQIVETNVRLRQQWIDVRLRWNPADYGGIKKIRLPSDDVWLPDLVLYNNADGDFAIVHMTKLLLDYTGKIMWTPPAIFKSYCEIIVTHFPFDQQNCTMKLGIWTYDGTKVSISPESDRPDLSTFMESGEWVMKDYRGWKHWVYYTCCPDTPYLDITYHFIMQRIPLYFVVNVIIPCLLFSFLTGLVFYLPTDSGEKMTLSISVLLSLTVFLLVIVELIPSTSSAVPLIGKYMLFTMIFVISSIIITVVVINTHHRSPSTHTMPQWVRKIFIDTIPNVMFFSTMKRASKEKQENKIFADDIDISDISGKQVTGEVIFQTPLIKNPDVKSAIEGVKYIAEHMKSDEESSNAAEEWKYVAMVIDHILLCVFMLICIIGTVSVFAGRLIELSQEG
# T4 sequence (P02712 25-493, further chain): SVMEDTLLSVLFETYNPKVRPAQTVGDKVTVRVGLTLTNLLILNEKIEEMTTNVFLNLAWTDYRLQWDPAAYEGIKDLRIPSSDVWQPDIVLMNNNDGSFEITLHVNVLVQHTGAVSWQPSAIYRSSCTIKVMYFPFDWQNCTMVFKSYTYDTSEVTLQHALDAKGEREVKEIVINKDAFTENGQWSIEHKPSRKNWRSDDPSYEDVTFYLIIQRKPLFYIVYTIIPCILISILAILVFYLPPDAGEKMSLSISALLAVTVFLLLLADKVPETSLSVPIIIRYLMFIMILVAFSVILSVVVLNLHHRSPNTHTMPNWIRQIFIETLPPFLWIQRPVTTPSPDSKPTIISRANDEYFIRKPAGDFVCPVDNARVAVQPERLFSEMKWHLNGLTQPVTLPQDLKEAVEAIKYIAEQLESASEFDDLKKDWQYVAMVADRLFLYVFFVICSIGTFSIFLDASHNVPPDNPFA
# T4 sequence (P02718 22-522): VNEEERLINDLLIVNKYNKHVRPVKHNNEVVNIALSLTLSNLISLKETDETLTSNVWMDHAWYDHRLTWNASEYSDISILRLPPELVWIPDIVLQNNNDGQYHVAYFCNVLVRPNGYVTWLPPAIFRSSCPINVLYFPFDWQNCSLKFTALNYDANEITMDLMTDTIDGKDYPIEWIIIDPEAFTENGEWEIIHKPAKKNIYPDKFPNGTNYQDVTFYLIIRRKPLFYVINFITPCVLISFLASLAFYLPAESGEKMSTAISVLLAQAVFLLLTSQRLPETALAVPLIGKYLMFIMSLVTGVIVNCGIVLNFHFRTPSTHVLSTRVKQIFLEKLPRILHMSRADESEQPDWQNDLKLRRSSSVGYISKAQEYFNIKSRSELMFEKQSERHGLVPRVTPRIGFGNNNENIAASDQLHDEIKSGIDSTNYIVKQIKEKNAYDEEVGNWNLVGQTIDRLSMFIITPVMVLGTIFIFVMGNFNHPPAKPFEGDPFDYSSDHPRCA
# T4 sequence (P02714 18-506): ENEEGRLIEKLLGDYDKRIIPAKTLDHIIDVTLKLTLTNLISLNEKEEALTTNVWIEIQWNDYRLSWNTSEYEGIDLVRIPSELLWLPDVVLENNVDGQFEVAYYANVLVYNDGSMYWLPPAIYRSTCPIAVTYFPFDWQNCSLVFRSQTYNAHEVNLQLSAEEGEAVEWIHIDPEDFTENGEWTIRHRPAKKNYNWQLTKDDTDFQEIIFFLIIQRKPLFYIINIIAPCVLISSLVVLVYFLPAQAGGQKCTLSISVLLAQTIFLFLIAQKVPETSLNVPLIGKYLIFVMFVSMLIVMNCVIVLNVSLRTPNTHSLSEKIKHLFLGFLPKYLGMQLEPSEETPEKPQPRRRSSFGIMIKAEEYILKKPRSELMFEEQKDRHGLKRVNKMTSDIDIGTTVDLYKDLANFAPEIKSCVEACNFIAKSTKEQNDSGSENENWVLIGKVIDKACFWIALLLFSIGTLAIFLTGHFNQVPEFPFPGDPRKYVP
smiles,measurement,setting,value
O=c1c(-c2cccnc2)ccc2n1CC1CNCC2C1 (stereo not drawn) [compound 1],mean duration of immobility in tail suspension test,"C57BL/6J male mice [1]; acute i.p., […] (1.5 mg/kg elsewhere in the source), 45 minutes after injection, vs saline, p=0.014, FIG. 3",significantly less mobile
Nc1cccc(-c2ccc3c(c2)CC2CNCC3C2)c1 (stereo not drawn) [57m],Ki,hα4β2,500 nM
c1ccc(-c2ccc3c(c2)CC2CNCC3C2)cc1 (stereo not drawn) [57j],Ki,hα4β2,500 nM
"O=c1cccc2n1C[C@@H]1CNC[C@H]2C1 [compound 27, 1,2,3,4,5,6-hexahydro-1,5-methano-pyrido[1,2-a][1,5]diazocin-8-one]",Ki,α4β2* nAChR,0.122 nM
same,Ki,α3β4* nAChR,19 nM
same,Ki,(α1)2β1γδ nAChR,1300 nM
same,immobility in tail suspension test,"C57BL/6J male mice [1]; acute i.p. injection of cytisine, FIG. 1",generalized antidepressant-like profile
same,immobility in tail suspension test,"C57BL/6J male mice [1]; cytisine, doses lower than 1 mg/kg",did not yield any significant effects
same,immobility in forced swim test,C57BL/6J male mice [2],generalized antidepressant-like profile
same,time to initiate first feeding episode in novelty-suppressed feeding test,C57BL/6J male mice [3],generalized antidepressant-like profile
same,neuronal activity (c-fos immunostaining),c-fos,"Reductions of neuronal activity in the amygdala, hypothalamus and in the nucleus accumbens"
same,potentiation of cytisine effects,C57BL/6J male mice [4],potentiation
